The results in this text go back to US8759348B2, “Use of 4-(pyrrolidin-1-yl)quinoline compounds to kill clinically latent microorganisms” (Helperby Therapeutics Limited, priority 2007, dated 2014).

The test deals with persister Mycobacterium tuberculosis. It is filed as cell-based. As to conditions: 10 μg/mL of test compound.

`Cc1cc(N2CCC(Cc3ccccc3)C2)c2cc(Oc3ccccc3)ccc2n1.Cl` (stereo not shown) [Example 8, 4-(3-Benzylpyrrolidin-1-yl)-2-methyl-6-phenoxyquinoline hydrochloride] yielded a log kill of 2.26.
